Measurements reported in ChEMBL document CHEMBL2424640, “Dihydrothiazolopyridone derivatives as a novel family of positive allosteric modulators of the metabotropic glutamate 5 (mGlu5) receptor” (J Med Chem, 2013).
pEC50: −log10 of the molar value.

Legend:
[1] = biological target: Metabotropic glutamate receptor 5 (Homo sapiens, UniProt P41594)
Description: Positive allosteric modulation of human mGluR5a transfected in HEK293 cells by calcium mobilization assay

[2] = biological target: Metabotropic glutamate receptor 8 (Homo sapiens, UniProt O00222)
Description: Positive allosteric modulation of human mGlu8 receptor expressed in HEK293 cells by fluorescent Ca2+ assay

[3] = biological target: Metabotropic glutamate receptor 7 (Homo sapiens, UniProt Q14831)
Description: Positive allosteric modulation of human mGlu7 receptor expressed in HEK293 cells by fluorescent Ca2+ assay

[4] = biological target: Metabotropic glutamate receptor 6 (Rattus norvegicus, UniProt P35349)
Description: Positive allosteric modulation of rat mGlu6 receptor expressed in CHO cells by [35S]-GTPgammaS binding assay

[5] = biological target: Metabotropic glutamate receptor 3 (Homo sapiens, UniProt Q14832)
Description: Positive allosteric modulation of human mGlu3 receptor expressed in HEK293 cells by fluorescent Ca2+ assay

[6] = biological target: Metabotropic glutamate receptor 2 (Homo sapiens, UniProt Q14416)
Description: Positive allosteric modulation of human mGlu2 receptor expressed in HEK293 cells by fluorescent Ca2+ assay

[7] = biological target: Metabotropic glutamate receptor 1 (Homo sapiens, UniProt Q13255)
Description: Positive allosteric modulation of human mGlu1 receptor expressed in HEK293 cells by fluorescent Ca2+ assay

[8] = biological target: Metabotropic glutamate receptor 4 (Homo sapiens, UniProt Q14833)
Description: Positive allosteric modulation of human mGlu4 receptor expressed in HEK293 cells by fluorescent Ca2+ assay

Sequence of Metabotropic glutamate receptor 2 (Q14416 whole entry): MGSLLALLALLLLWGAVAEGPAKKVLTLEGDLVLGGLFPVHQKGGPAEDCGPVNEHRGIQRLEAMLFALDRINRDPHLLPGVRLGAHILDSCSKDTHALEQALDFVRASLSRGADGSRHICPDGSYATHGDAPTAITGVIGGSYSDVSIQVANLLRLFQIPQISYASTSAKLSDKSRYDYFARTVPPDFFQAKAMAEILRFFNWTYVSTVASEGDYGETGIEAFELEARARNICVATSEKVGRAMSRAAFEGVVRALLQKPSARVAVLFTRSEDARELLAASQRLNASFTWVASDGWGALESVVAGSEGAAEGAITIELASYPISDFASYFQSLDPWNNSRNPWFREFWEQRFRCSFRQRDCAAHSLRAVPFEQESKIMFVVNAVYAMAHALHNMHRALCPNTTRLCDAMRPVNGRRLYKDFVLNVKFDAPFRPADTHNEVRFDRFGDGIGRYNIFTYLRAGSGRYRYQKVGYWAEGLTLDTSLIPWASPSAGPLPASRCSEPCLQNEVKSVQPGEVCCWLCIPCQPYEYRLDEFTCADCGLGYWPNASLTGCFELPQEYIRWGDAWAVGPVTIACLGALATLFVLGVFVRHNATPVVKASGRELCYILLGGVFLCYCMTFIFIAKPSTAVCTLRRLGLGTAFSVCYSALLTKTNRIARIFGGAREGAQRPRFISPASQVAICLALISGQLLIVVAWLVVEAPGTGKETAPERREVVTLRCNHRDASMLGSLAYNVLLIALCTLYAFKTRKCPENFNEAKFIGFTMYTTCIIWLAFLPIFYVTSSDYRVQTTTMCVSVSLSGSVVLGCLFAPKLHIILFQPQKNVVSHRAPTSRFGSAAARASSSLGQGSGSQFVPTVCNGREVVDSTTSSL
Sequence of Metabotropic glutamate receptor 7 (Q14831 whole entry): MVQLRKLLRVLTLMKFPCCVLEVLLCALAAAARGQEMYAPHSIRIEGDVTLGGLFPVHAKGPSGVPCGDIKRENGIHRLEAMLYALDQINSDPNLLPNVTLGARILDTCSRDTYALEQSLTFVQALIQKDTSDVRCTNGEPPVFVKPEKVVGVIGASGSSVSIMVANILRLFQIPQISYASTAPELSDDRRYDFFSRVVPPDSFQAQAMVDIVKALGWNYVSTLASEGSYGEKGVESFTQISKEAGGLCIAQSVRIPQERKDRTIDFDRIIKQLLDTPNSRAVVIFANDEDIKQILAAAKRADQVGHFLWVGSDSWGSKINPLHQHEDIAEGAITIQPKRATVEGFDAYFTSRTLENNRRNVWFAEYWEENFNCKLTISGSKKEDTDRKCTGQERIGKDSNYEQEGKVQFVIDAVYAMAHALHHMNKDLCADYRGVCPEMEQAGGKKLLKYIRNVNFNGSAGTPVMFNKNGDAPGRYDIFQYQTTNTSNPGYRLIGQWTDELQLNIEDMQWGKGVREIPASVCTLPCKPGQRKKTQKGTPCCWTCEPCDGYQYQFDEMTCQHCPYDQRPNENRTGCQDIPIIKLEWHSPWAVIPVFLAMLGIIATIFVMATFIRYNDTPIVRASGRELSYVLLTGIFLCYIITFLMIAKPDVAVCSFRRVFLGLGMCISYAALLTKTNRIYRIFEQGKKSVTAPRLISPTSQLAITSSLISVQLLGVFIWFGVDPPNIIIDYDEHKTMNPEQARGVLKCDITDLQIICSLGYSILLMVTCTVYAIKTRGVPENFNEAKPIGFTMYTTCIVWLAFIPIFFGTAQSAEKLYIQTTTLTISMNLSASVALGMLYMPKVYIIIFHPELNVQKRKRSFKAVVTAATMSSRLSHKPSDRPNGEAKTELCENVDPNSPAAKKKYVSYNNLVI
Sequence of Metabotropic glutamate receptor 1 (Q13255 whole entry): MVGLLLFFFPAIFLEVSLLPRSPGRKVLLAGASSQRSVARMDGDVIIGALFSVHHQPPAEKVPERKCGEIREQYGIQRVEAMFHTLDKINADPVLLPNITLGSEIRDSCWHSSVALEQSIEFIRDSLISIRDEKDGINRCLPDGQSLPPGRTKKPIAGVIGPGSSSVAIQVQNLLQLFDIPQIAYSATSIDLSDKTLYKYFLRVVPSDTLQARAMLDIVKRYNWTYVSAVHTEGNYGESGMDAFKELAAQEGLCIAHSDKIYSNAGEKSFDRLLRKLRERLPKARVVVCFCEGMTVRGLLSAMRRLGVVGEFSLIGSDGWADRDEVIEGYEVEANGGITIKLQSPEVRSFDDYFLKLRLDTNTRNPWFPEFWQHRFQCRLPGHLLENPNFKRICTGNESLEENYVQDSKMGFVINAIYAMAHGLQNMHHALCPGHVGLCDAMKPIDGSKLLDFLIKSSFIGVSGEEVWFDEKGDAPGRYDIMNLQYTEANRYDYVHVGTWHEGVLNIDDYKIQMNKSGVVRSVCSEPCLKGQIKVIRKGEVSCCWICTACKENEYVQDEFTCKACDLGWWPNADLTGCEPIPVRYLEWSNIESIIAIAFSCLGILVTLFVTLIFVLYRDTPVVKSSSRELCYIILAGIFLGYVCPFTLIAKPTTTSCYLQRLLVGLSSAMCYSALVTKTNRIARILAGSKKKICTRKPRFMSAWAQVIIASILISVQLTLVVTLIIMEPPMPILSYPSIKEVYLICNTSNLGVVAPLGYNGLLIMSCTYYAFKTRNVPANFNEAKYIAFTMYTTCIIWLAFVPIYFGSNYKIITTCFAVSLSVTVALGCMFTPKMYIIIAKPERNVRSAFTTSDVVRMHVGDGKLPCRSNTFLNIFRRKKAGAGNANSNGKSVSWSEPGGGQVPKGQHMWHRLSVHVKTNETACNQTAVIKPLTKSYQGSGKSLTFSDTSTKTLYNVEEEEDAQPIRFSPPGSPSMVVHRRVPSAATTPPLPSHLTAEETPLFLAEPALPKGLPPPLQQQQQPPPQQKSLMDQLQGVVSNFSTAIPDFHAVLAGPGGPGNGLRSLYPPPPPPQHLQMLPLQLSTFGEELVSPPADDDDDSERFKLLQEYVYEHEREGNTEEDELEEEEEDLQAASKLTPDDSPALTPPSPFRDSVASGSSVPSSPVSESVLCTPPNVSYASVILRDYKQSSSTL
Sequence of Metabotropic glutamate receptor 6 (P35349 whole entry): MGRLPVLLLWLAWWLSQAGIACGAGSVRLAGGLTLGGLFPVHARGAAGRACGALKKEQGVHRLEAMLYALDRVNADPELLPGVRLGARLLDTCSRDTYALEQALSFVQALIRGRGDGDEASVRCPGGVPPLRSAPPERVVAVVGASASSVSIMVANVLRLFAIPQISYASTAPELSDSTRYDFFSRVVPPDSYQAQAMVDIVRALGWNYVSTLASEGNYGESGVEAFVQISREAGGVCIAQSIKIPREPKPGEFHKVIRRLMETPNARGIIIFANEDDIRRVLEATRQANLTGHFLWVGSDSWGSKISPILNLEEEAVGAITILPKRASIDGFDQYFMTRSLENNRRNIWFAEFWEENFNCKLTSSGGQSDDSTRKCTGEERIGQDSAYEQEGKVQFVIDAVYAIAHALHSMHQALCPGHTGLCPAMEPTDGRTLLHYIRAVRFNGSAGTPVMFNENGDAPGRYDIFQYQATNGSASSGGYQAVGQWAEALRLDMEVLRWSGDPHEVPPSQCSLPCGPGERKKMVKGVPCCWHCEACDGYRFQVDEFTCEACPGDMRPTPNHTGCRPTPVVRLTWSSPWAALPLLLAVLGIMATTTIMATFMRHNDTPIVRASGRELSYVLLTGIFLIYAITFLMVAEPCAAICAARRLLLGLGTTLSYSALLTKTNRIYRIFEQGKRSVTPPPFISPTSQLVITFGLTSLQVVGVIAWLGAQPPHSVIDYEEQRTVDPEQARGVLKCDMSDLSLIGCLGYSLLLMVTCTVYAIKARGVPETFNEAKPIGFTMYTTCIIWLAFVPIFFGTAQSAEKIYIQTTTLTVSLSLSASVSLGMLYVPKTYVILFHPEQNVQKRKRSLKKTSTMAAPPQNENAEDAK
Sequence of Metabotropic glutamate receptor 8 (O00222 whole entry): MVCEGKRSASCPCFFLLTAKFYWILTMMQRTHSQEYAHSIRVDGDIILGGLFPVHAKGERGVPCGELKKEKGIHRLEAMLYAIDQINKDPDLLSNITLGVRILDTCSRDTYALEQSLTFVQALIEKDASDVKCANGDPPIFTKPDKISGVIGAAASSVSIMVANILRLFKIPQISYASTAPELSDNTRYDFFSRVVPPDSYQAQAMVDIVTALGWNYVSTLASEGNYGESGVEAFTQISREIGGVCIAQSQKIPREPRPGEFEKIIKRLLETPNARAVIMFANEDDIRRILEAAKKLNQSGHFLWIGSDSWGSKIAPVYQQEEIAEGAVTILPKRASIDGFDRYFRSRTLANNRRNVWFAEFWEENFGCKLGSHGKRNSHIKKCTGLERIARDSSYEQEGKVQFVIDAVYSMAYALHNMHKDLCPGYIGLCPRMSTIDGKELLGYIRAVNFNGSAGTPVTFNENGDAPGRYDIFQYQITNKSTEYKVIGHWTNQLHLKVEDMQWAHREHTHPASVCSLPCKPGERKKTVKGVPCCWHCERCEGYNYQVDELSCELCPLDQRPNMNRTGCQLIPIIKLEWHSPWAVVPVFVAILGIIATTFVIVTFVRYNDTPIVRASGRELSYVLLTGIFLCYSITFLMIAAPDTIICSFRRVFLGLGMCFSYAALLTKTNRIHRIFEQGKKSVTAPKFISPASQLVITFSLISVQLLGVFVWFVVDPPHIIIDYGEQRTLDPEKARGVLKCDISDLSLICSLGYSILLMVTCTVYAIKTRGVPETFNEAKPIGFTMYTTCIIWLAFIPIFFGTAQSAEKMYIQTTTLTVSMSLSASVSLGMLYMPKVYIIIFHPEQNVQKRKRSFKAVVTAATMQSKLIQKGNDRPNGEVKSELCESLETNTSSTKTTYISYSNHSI

Compound | pEC50 [1] | further results
CN1CCc2nc(C#Cc3ccccc3)sc2C1=O | 6.71 | 
O=C1c2sc(OCc3ccccc3)nc2CCN1c1ccc(F)cc1 | 5.95 | 
O=C1c2sc(COc3ccccc3)nc2CCN1c1cccnc1 | 5.75 | 
O=C(O)c1ccccc1 [BENZOIC ACID] | < 5.00 | 
O=C1c2sc(COc3ccccc3)nc2CCN1c1ncccc1F | 6.10 | 
COCCN1CCc2nc(C#Cc3ccccc3)sc2C1=O | 6.92 | 
O=C1c2sc(COc3ccccc3)nc2CCN1C1CC1 | 5.84 | 
O=C1c2sc(COc3ccccc3F)nc2CCN1c1ccc(F)cc1 | 6.26 | 
O=C1c2sc(COc3ccccc3)nc2CCN1c1ccccn1 | 5.99 | 
O=C1c2sc(COc3ccc(F)cc3)nc2CCN1c1ccc(F)cc1 | 6.13 | 
O=C1c2sc(COc3ccccc3)nc2CCN1c1ccc(F)cc1 | 7.02 | 
O=C1c2sc(COc3ccccc3)nc2CCN1CC1CCOCC1 | 6.07 | 
COCCN1CCc2nc(COc3ccccc3)sc2C1=O | 5.64 | 
O=C1c2sc(COc3cccc(F)c3)nc2CCN1c1ccc(F)cc1 | 7.11 | 
CN1CCc2nc(OCc3ccccc3)sc2C1=O | 5.76 | 
CC(C)N1CCc2nc(COc3ccccc3)sc2C1=O | 5.92 | 
O=C1c2sc(COc3ccccc3)nc2CCN1CC1CC1 | 6.60 | 
O=C1c2sc(COc3ccccc3)nc2CCN1c1ccc(F)cn1 | 6.21 | 
O=C1CCOc2cc(COc3ccccc3)ccc21 |  | pEC50 [2]: < 5.00; pEC50 [3]: < 5.00; pEC50 [4]: < 5.00; pEC50 [5]: < 5.00; pEC50 [6]: < 5.00; pEC50 [7]: < 5.00
O=C1CCCc2nc(C#Cc3ccccc3)sc21 | 7.48 | pEC50 [2]: < 5.00; pEC50 [3]: < 5.00; pEC50 [4]: < 5.00; pEC50 [5]: < 5.00; pEC50 [8]: < 5.00; pEC50 [6]: < 5.00; pEC50 [7]: < 5.00
O=C1NCCc2nc(C#Cc3ccccc3)sc21 | 6.91 | 
O=C(c1ccc(F)cc1)N1CCC[C@H](c2nc(-c3ccc(F)cc3)no2)C1 | 6.70 | 
O=C1CCOc2cc(OCc3ccccc3)ccc21 |  | pEC50 [2]: < 5.00; pEC50 [3]: < 5.00; pEC50 [4]: < 5.00; pEC50 [5]: < 5.00; pEC50 [6]: < 5.00; pEC50 [7]: < 5.00
O=C1c2sc(COc3ccccc3)nc2CCN1c1ccc(F)cc1F | 7.18 | 
O=C1CCc2cc(O)ccc2O1 | < 5.00 | 
